Data on 20 compounds can be found in patent US20240368174A1, “Antiviral Heterocyclic Compounds” (Enanta Pharmaceuticals, Inc., priority 2023, published 2024).

pEC50: −log10 of the molar value.

The test system of the assay is HMPV clinical isolate A2 strain TN 94-49. Put plainly: HMPV antiviral assay, Method 2 (LLC-MK2 cells with CP-100-356, ATP-Lite). The class given is cell-based. To be noted: human metapneumovirus. How it is done: In vitro HMPV antiviral activity was evaluated using the clinical isolate A2 strain TN 94-49 (obtained from Dr. John Williams, Vanderbilt University, Tennessee) and LLC-MK2 cells (Millipore Sigma CB_85062804), an immortalized kidney epithelial cell line from Macaca mulatta. Compounds were resuspended in dimethyl sulfoxide (DMSO) at 10 mM, serially diluted and added to a 384-well source plate. Subsequently, the compounds were diluted and transferred onto 384-well assay plates using the Echo-650 automated liquid handling system (Beckman Coulter, Indiana). The test compounds were assessed in duplicate at a top concentration of 200 nM followed by 2.5-fold serial dilutions to give a total of 10 concentration points. DMSO control wells were also included on the assay plates and were either infected or not, acting as positive and negative controls. A2 TN 94-49 virus infections were performed in-suspension with LLC-MK2 cells. The cells were washed twice with PBS and removed from the cell-culture flask with 0.25% trypsin-EDTA (Thermo Fisher Scientific, MA). The trypsin-EDTA was inactivated by resuspending in 2% fetal bovine serum (FBS) and OptiMEM (ThermoFisher Scientific, MA) containing 1% antibiotic-antimycotic. Cells were pelleted by centrifuging for 5 minutes at 800 rpm, the supernatant was removed, and cells were re-suspended and washed in PBS plus 100 μg/mL CaCl2). This step was performed twice. Cells were then re-suspended in serum-free (SF)-OptiMEM containing 4 μg/mL TPCK-Trypsin (Sigma Aldrich, MO), 1% antibiotic-antimycotic (ThermoFisher Scientific, MA), 100 μg/mL CaCl2), and 4 μM of CP-100-356, a P-glycoprotein inhibitor. Cells were counted and seeded at a density of 5,000 cells/well, 12.5 μL/well. Virus infections were done at a multiplicity of infection (MOI) of 0.16 with 12.5 μL added per well. Virus infections were performed in infection media which contained SF-OptiMEM, 100 μg/mL CaCl2) and 1% antibiotic-antimycotic. HMPV viral stocks are suspended in infection media+5% glycerol, thus an equal volume of infection media+5% glycerol was added to uninfected wells to equalize the final % glycerol across all wells of the assay plate. The final concentration of TPCK-trypsin was 2 μg/mL. The final concentration of CP-100-356 was 2 μM. The assay plates were incubated at 37° C., 5% CO2 for 7 days. After 7 days incubation, 12.5 μL of ATP-Lite (PerkinElmer, MA) was added to each well and the raw luminescence values were determined using the Envision 2104 (Perkin Elmer, MA). The average of the raw luminescence values for the cells and virus only positive control wells was subtracted from all conditions tested and the percent cell health was determined by dividing these values by the average of the cells only negative control wells. EC50 values were then calculated by non-linear regression using a four-parameter curve logistic equation. The curve fit model employed was XLFit Dose Response One Site Model 200: y=(A+(B/(1+((x/C)^D)))), where A is the minimum y value, B is the maximum y value, C is the log EC50 value, and D is the slope factor.

The mark [1] stands for this setting: hMPV A2 TN/94-49, LLC-MK2 cells with CP-100-356, Method 2.
Where [2] appears, read: 168 h, hMPV A2 TN/94-49, LLC-MK2 cells with 4 μM CP-100-356, 7 days, ATP-Lite.

Usually pEC50 stands for −log10 of the EC50, conventionally taken in molar units. Low values mean a large EC50, high ones a small EC50.

For the compound `COc1cc(C(=O)NC[C@@](O)(c2cc[nH]c(=O)c2)c2cc3c(c(-c4cc(Cl)c(F)cc4F)n2)OC[C@]3(C)C(N)=O)cc2cn(C3CC3)nc12` [Example 504], the negative logarithm of the EC50 (pEC50) under setting [1] is less than 6.70.

`Cc1nc2ccc(C(=O)NC[C@@](O)(c3ccccc3)c3cc4c(c(-c5cc(F)c(F)cc5F)n3)OC[C@]4(C)C(N)=O)cc2o1` [Example 192] had a pEC50 under setting [1] greater than 6.70.

`COc1cc(C(=O)NCC(O)(c2ccccc2)c2cc3c(c(-c4ccc(F)cc4)n2)OC[C@]3(C)C(N)=O)cc2cn(C3(F)CC3)nc12` (some centres unmarked) [Example 361] had a pEC50 under setting [1] of less than 6.70.

`Cc1nccc(-c2nc([C@@](O)(CNC(=O)c3cc(OC4CC4)c4nn(C5CC5)cc4c3)C3CC3)cc3c2OC[C@]3(C)C(N)=O)c1Cl` [Example 600] gave a pEC50 under setting [1] greater than 6.70.

In the case of `COc1nccc(-c2nc([C@@](O)(CNC(=O)c3cc(OC)c4nn(C5CC5)cc4c3)c3cccc(F)c3)cc3c2OC[C@]3(C)C(N)=O)c1Cl` [Example 877], under setting [2], the pEC50 was greater than 6.70.

`COc1cc(C(=O)NC[C@](O)(c2cc3c(c(-c4c(C)cncc4C)n2)OC[C@]3(C)C(N)=O)C2CC2)cc2cn(C3CC3)nc12` [Example 726] showed a pEC50 under setting [2] greater than 6.70.

Under setting [1], `COc1cc(C(=O)NC[C@@](O)(c2ccc(F)cc2)c2cc3c(c(-c4ccnc(C(F)(F)F)c4F)n2)OC[C@]3(C)C(N)=O)cc2cn(C3CC3)nc12` [Example 571] showed a pEC50 greater than 6.70.

Consider `COc1cc(C(=O)NCC(O)(c2cc(F)nc(F)c2)c2cc3c(c(-c4cccc(Cl)c4Cl)n2)OC[C@]3(C)C(N)=O)cc2cn(C3CC3)nc12` (some centres unmarked) [Example 499], for which the pEC50 under setting [1] was greater than 6.70.

Take `C[C@]1(C(N)=O)COc2c1cc([C@@](O)(CNC(=O)c1cc(OC3CC3)n3nc(C4CC4)cc3c1)c1cccc(F)c1)nc2-c1cccc(Cl)c1Cl` [Example 335]: the pEC50 under setting [1] is greater than 6.70.

The compound `COc1cc(C(=O)NC[C@@](O)(c2ccccc2)c2cc3c(c(-n4ncc5c(F)cccc54)n2)OC[C@]3(C)C(N)=O)cc2sc(N)nc12` [Example 633] showed a pEC50 under setting [2] of less than 6.70.

`COc1cc(C(=O)NC[C@@](O)(c2ccccc2)c2cc3c(c(-c4cc(Cl)c(F)cc4F)n2)OC[C@]3(C)C(N)=O)cc2c1OCCC2` [Example 93] had a pEC50 under setting [1] of less than 6.70.

Compound `COc1nccc(-c2nc([C@@](O)(CNC(=O)c3cc(OC4CC4)c4nn(C5CC5)cc4c3)C(C)C)cc3c2OC[C@]3(C)C(N)=O)c1Cl` [Example 893] showed a pEC50 under setting [2] greater than 6.70.

For the compound `Cc1nc2c(OC(F)(F)F)cc(C(=O)NC[C@@](O)(c3ccccc3)c3cc4c(c(-c5cc(Cl)c(F)cc5F)n3)OC[C@]4(C)C(N)=O)cc2s1` [Example 188], under setting [1], the pEC50 is less than 6.70.

Take `COc1cc(C(=O)NC[C@@](O)(c2cccc(F)n2)c2cc3c(c(-c4ccc(F)c(Cl)c4Cl)n2)OC[C@]3(C)C(N)=O)cc2cn(C3CC3)nc12` [Example 340]: the pEC50 under setting [1] was greater than 6.70.

Take `COc1cc(C(=O)NC[C@](O)(c2cc3c(c(-c4ccnc(OCC(C)C)c4Cl)n2)OC[C@]3(C)C(N)=O)C2CC2)cc2cn(C3CC3)nc12` [Example 804]: under setting [2], the pEC50 is less than 6.70.

`COc1cc(C(=O)NC[C@](O)(c2cc3c(c(-n4ccc5ccccc54)n2)OC[C@]3(C)C(N)=O)C(F)(F)F)cc2cn(C(F)F)nc12` [Example 449] had a pEC50 under setting [1] greater than 6.70.

On to `COc1cc(C(=O)NC[C@@](O)(c2cnn(C)c2)c2cc3c(c(-c4cc(Cl)c(F)cc4F)n2)OC[C@]3(C)C(N)=O)cc2cn(C3CC3)nc12` [Example 153], for which, under setting [1], the pEC50 was less than 6.70.

Compound `COc1cc(C(=O)NC[C@@](O)(c2ccccc2)c2cc3c(c(-c4cc(C(F)(F)F)c(F)cc4F)n2)OC[C@]3(C)C(N)=O)cc2cn(C(F)F)nc12` [Example 304] gave a pEC50 under setting [1] greater than 6.70.

Turning to `COc1cc(C(=O)NC[C@](O)(c2cc3c(c(-c4cc(Cl)ncc4Cl)n2)OC[C@]3(C)C(N)=O)C2CC2)cc2cn(C3CC3)nc12` [Example 389], under setting [1], the pEC50 was greater than 6.70.

With `COc1cc(C(=O)NC[C@](O)(c2cc3c(c(-c4ccnc(C(F)(F)F)c4)n2)OC[C@]3(C)C(N)=O)C2CC2)cc2cn(C(F)F)nc12` [Example 759], the pEC50 under setting [2] was less than 6.70.
